Results from paper PMC5535166 (Toxins, 2017).

Molecular target: T1, rShGST (recombinant Schistoma japonicum GST) (Schistosoma japonicum, UniProt P08515)
T1 construct: GST expressed from the empty vector pGEX-6P-1 (vector-encoded C-terminal linker), E. coli BL21(DE3), Glutathione Sepharose
Experiment: GST activity with CDNB, absorbance at […] nm
Assay type: biochemical
Conditions: 100 µM inhibitor; 1 mM CDNB, 1 mM GSH, 0.1 M phosphate pH 6.5

T1 sequence (P08515 2-218): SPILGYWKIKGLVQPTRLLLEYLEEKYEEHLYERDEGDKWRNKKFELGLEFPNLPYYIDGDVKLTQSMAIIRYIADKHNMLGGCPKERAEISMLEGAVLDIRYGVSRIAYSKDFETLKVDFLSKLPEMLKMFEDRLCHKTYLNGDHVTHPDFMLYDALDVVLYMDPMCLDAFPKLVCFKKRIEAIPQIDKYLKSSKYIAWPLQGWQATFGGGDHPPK

Q: For `C=C(CC)C(=O)c1ccc(OCC(=O)O)c(Cl)c1Cl` [ethacrynic acid], which “GST activity, % of control at 100 μM” value is on record?
A: Its value is “Ethacrynic acid strongly inhibited the GST activity of recombinant Schistoma japonicum GST (rShGST)”.
